Results taken from US8653092B2, “Tetrahydro-pyrido-pyrimidine derivatives” (Novartis AG, priority 2010, dated 2014).

Tests used:
PI3K alpha = PI3K alpha (Homo sapiens (Human), UniProt P42336); assay: Enzymatic PI3K alpha isoform inhibition (lipid kinase, Kinase-Glo luminescence); assay type: biochemical; details: enzymatic assay
PI3K delta = PI3K delta (Homo sapiens (Human), UniProt O00329); assay: Enzymatic PI3K delta isoform inhibition (lipid kinase, Kinase-Glo luminescence); assay type: biochemical; details: enzymatic assay
Chain of PI3K delta (O00329 other isoform, or with tags, fused parts or gaps linker GGGGGG): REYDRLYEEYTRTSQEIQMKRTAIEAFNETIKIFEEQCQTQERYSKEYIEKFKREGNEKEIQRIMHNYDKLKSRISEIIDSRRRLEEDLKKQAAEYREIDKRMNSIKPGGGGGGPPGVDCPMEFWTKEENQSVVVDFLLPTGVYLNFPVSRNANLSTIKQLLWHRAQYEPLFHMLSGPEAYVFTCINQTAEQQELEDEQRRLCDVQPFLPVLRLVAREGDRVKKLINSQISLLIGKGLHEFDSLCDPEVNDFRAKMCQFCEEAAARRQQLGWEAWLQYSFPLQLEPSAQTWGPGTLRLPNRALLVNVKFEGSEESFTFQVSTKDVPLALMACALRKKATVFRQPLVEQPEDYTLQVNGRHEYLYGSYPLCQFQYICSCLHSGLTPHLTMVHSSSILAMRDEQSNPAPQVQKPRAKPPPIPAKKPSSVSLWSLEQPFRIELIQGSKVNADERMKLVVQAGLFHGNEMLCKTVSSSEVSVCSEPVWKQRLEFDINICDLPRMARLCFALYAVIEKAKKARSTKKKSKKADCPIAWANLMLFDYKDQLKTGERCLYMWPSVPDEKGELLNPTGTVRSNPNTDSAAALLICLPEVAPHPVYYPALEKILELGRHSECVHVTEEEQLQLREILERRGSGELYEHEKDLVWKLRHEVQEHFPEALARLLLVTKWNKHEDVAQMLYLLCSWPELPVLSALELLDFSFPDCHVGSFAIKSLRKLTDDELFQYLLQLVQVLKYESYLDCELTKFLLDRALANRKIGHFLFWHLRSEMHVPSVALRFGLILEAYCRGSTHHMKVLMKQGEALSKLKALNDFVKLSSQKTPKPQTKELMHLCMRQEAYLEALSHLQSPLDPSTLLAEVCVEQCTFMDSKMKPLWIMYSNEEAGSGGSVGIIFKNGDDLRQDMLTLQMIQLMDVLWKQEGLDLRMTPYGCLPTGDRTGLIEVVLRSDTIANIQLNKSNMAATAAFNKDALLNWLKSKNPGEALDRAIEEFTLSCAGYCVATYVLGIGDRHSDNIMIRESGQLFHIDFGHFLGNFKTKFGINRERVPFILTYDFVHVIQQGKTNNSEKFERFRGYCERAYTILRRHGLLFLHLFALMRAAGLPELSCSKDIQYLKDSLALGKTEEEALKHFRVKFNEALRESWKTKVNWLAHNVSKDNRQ

Chain of PI3K alpha (P42336 other isoform, or with tags, fused parts or gaps): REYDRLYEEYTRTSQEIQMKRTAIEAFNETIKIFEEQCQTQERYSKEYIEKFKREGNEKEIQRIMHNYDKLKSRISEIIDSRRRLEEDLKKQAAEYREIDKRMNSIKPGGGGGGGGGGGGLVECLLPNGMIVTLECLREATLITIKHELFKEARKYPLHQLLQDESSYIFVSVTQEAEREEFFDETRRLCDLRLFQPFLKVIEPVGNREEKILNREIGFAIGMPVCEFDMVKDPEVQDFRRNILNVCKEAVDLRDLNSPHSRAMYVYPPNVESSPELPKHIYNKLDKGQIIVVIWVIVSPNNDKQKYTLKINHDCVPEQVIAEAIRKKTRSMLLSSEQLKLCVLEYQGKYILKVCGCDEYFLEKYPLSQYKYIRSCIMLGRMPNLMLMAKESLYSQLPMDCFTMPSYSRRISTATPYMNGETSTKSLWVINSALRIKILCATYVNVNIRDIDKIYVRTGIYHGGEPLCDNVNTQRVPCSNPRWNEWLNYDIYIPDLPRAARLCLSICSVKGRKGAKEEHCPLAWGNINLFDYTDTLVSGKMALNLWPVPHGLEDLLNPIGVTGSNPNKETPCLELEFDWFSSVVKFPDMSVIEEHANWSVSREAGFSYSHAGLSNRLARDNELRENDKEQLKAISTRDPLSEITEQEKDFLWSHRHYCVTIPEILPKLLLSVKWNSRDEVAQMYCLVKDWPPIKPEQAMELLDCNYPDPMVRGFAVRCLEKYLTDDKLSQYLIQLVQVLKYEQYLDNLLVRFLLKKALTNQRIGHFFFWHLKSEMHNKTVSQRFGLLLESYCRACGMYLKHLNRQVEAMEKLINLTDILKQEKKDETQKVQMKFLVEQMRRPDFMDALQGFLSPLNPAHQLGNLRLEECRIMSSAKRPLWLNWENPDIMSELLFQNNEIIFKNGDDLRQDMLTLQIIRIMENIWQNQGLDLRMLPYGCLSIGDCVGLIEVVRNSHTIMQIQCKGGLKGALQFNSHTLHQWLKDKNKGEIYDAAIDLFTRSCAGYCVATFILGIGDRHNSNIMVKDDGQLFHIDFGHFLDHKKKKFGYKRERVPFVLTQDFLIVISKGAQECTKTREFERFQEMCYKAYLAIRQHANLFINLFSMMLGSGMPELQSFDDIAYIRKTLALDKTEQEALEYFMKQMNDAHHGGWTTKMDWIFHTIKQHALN

Q: With `COc1ncc(N2CCc3ncnc(O[C@H]4CCN(C(=O)c5conc5C)C4)c3C2)cc1C` [Example 32, {(S)-3-[6-(6-Methoxy-5-methyl-pyridin-3-yl)-5,6,7,8-tetrahydro-pyrido[4,3-d]pyrimidin-4-yloxy]-pyrrolidin-1-yl}-(3-methyl-isoxazol-4-yl)-methanone] as the molecule, how does the IC50 (PI3K alpha) read?
A: 2.04 µM

Q: And the IC50 (PI3K delta)?
A: 0.023 µM

Q: With `COc1ncc(N2CCc3ncnc(O[C@H]4CCN(C(=O)c5ccon5)C4)c3C2)cc1C` [Example 33, Isoxazol-3-yl-{(S)-3-[6-(6-Methoxy-5-methyl-pyridin-3-yl)-5,6,7,8-tetrahydro-pyrido[4,3-d]pyrimidin-4-yloxy]-pyrrolidin-1-yl}-methanone] as the molecule, how does the IC50 (PI3K alpha) read?
A: 1.97 µM

Q: And the IC50 (PI3K delta)?
A: 0.018 µM

Q: With `COc1ncc(N2CCc3ncnc(O[C@H]4CCN(C(=O)c5ccno5)C4)c3C2)cc1C` [Example 34, Isoxazol-5-yl-{(S)-3-[6-(6-Methoxy-5-methyl-pyridin-3-yl)-5,6,7,8-tetrahydro-pyrido[4,3-d]pyrimidin-4-yloxy]-pyrrolidin-1-yl}-methanone] as the molecule, how does the IC50 (PI3K alpha) read?
A: 1.65 µM

Q: And the IC50 (PI3K delta)?
A: 0.014 µM

Q: For `COc1ncc(N2CCc3ncnc(O[C@H]4CCN(C(=O)c5cscn5)C4)c3C2)cc1C#N` [Example 35, 2-Methoxy-5-{4-[(S)-1-(thiazole-4-carbonyl)-pyrrolidin-3-yloxy]-7,8-dihydro-5H-pyrido[4,3-d]pyrimidin-6-yl}-nicotinonitrile], which IC50 (PI3K alpha) is on record?
A: 4.23 µM

Q: What about the IC50 (PI3K delta) of the same molecule?
A: 0.049 µM

Q: For `COc1ncc(N2CCc3ncnc(O[C@H]4CCN(C(=O)c5cnn(C)c5)C4)c3C2)cc1C#N` [Example 36, 2-Methoxy-5-{4-[(S)-1-(1-methyl-1H-pyrazole-4-carbonyl)-pyrrolidin-3-yloxy]-7,8-dihydro-5H-pyrido[4,3-d]pyrimidin-6-yl}-nicotinonitrile], which IC50 (PI3K alpha) is on record?
A: 4.1 µM

Q: What about the IC50 (PI3K delta) of the same molecule?
A: 0.025 µM

Q: For `COc1ncc(N2CCc3ncnc(O[C@H]4CCN(C(=O)c5ccn(C)n5)C4)c3C2)cc1C#N` [Example 37, 2-Methoxy-5-{4-[(S)-1-(1-methyl-1H-pyrazole-3-carbonyl)-pyrrolidin-3-yloxy]-7,8-dihydro-5H-pyrido[4,3-d]pyrimidin-6-yl}-nicotinonitrile], which IC50 (PI3K alpha) is on record?
A: 7.02 µM

Q: And the IC50 (PI3K delta)?
A: 0.031 µM

Q: Which IC50 (PI3K alpha) does the source give for `COc1ncc(N2CCc3ncnc(O[C@H]4CCN(C(=O)C5CCOC(C)(C)C5)C4)c3C2)cc1C` (stereo partly drawn) [Example 38, (2,2-Dimethyl-tetrahydro-pyran-4yl)-{(S)-3-[6-(6-Methoxy-5-methyl-pyridin-3-yl)-5,6,7,8-tetrahydro-pyrido[4,3-d]pyrimidin-4-yloxy]-pyrrolidin-1-yl}-methanone] here?
A: 3.31 µM

Q: What about the IC50 (PI3K delta) of the same molecule?
A: 0.016 µM

Q: `COc1ncc(N2CCc3ncnc(O[C@H]4CCN(C(=O)C5CCS(=O)(=O)CC5)C4)c3C2)cc1C(F)(F)F` [Example 39, (1,1-Dioxo-hexahydro-1lambda*6*-thiopyran-4-yl)-{(S)-3-[6-(6-methoxy-5-trifluoromethyl-pyridin-3-yl)-5,6,7,8-tetrahydro-pyrido[4,3-d]pyrimidin-4-yloxy]-pyrrolidin-1-yl}-methanone] was tested. Which IC50 (PI3K alpha) did it give?
A: 0.434 µM

Q: And the IC50 (PI3K delta)?
A: 0.009 µM

Q: With `COc1ncc(N2CCc3ncnc(O[C@H]4CCN(C(=O)c5oc(C)nc5C)C4)c3C2)cc1C(F)(F)F` [Example 40, (2,4-Dimethyl-oxazol-5-yl)-{(S)-3-[6-(6-methoxy-5-trifluoromethyl-pyridin-3-yl)-5,6,7,8-tetrahydro-pyrido[4,3-d]pyrimidin-4-yloxy]-pyrrolidin-1-yl}-methanone] as the molecule, how does the IC50 (PI3K alpha) read?
A: 0.26 µM

Q: And the IC50 (PI3K delta)?
A: 0.006 µM

Q: How did the IC50 (PI3K alpha) turn out when `COc1ncc(N2CCc3ncnc(O[C@H]4CCN(C(=O)c5cncs5)C4)c3C2)cc1C(F)(F)F` [Example 41, {(S)-3-[6-(6-Methoxy-5-trifluoromethyl-pyridin-3-yl)-5,6,7,8-tetrahydro-pyrido[4,3-d]pyrimidin-4-yloxy]-pyrrolidin-1-yl}-thiazol-5-yl-methanone] was run?
A: 0.515 µM

Q: What about the IC50 (PI3K delta) of the same molecule?
A: 0.014 µM

Q: Which IC50 (PI3K alpha) does the source give for `COc1ncc(N2CCc3ncnc(O[C@H]4CCN(C(=O)c5ccnn5C)C4)c3C2)cc1C(F)(F)F` [Example 42, {(S)-3-[6-(6-Methoxy-5-trifluoromethyl-pyridin-3-yl)-5,6,7,8-tetrahydro-pyrido[4,3-d]pyrimidin-4-yloxy]-pyrrolidin-1-yl}-(2-methyl-2H-pyrazol-3-yl)-methanone] here?
A: 0.863 µM

Q: What about the IC50 (PI3K delta) of the same molecule?
A: 0.013 µM

Q: With `COc1ncc(N2CCc3ncnc(O[C@H]4CCN(C(=O)C5CNC(=O)C5)C4)c3C2)cc1C(F)(F)F` (stereo partly drawn) [Example 43, 4-{(S)-3-[6-(6-Methoxy-5-trifluoromethyl-pyridin-3-yl)-5,6,7,8-tetrahydro-pyrido[4,3-d]pyrimidin-4-yloxy]-pyrrolidine-1-carbonyl}-pyrrolidin-2-one] as the molecule, how does the IC50 (PI3K alpha) read?
A: 0.728 µM

Q: And the IC50 (PI3K delta)?
A: 0.016 µM

Q: With `COc1ncc(N2CCc3ncnc(O[C@H]4CCN(C(=O)c5cccnc5)C4)c3C2)cc1C(F)(F)F` [Example 44, {(S)-3-[6-(6-Methoxy-5-trifluoromethyl-pyridin-3-yl)-5,6,7,8-tetrahydro-pyrido[4,3-d]pyrimidin-4-yloxy]-pyrrolidin-1-yl}-pyridin-3-yl-methanone] as the molecule, how does the IC50 (PI3K alpha) read?
A: 1.19 µM

Q: What about the IC50 (PI3K delta) of the same molecule?
A: 0.016 µM

Q: `COc1ncc(N2CCc3ncnc(O[C@H]4CCN(C(=O)c5c[nH]cn5)C4)c3C2)cc1C(F)(F)F` [Example 45, (1H-Imidazol-4-yl)-{(S)-3-[6-(6-methoxy-5-trifluoromethyl-pyridin-3-yl)-5,6,7,8-tetrahydro-pyrido[4,3-d]pyrimidin-4-yloxy]-pyrrolidin-1-yl}-methanone] was tested. Which IC50 (PI3K alpha) did it give?
A: 0.86 µM

Q: And the IC50 (PI3K delta)?
A: 0.018 µM

Q: What does the source list for `COc1ncc(N2CCc3ncnc(O[C@H]4CCN(C(=O)C5CCC(=O)N5)C4)c3C2)cc1C(F)(F)F` (stereo partly drawn) [Example 46, 5-{(S)-3-[6-(6-Methoxy-5-trifluoromethyl-pyridin-3-yl)-5,6,7,8-tetrahydro-pyrido[4,3-d]pyrimidin-4-yloxy]-pyrrolidine-1-carbonyl}-pyrrolidin-2-one]?
A: IC50 (PI3K alpha): 0.803 µM; IC50 (PI3K delta): 0.027 µM

Q: How did the IC50 (PI3K alpha) turn out when `COc1ncc(N2CCc3ncnc(O[C@H]4CCN(C(=O)c5ccncc5)C4)c3C2)cc1C(F)(F)F` [Example 47, {(S)-3-[6-(6-Methoxy-5-trifluoromethyl-pyridin-3-yl)-5,6,7,8-tetrahydro-pyrido[4,3-d]pyrimidin-4-yloxy]-pyrrolidin-1-yl}-pyridin-4-yl-methanone] was run?
A: 0.656 µM

Q: What about the IC50 (PI3K delta) of the same molecule?
A: 0.025 µM

Q: How did the IC50 (PI3K alpha) turn out when `COc1ncc(N2CCc3ncnc(O[C@H]4CCN(C(=O)c5cn(C)nc5C)C4)c3C2)cc1C(F)(F)F` [Example 48, (1,3-Dimethyl-1H-pyrazol-4-yl)-{(S)-3-[6-(6-methoxy-5-trifluoromethyl-pyridin-3-yl)-5,6,7,8-tetrahydro-pyrido[4,3-d]pyrimidin-4-yloxy]-pyrrolidin-1-yl}-methanone] was run?
A: 0.518 µM

Q: And the IC50 (PI3K delta)?
A: 0.029 µM

Q: `COc1ncc(N2CCc3ncnc(O[C@H]4CCN(C(=O)c5cn[nH]c5)C4)c3C2)cc1C(F)(F)F` [Example 49, {(S)-3-[6-(6-Methoxy-5-trifluoromethyl-pyridin-3-yl)-5,6,7,8-tetrahydro-pyrido[4,3-d]pyrimidin-4-yloxy]-pyrrolidin-1-yl}-(1H-pyrazol-4-yl)-methanone] was tested. Which IC50 (PI3K alpha) did it give?
A: 0.388 µM

Q: And the IC50 (PI3K delta)?
A: 0.034 µM

Q: Which IC50 (PI3K alpha) does the source give for `COc1ncc(N2CCc3ncnc(O[C@H]4CCN(C(=O)c5nnc(C)o5)C4)c3C2)cc1C(F)(F)F` [Example 51, {(S)-3-[6-(6-Methoxy-5-trifluoromethyl-pyridin-3-yl)-5,6,7,8-tetrahydro-pyrido[4,3-d]pyrimidin-4-yloxy]-pyrrolidin-1-yl}-(5-methyl-[1,3,4]oxadiazol-2-yl)-methanone] here?
A: 0.912 µM

Q: And the IC50 (PI3K delta)?
A: 0.044 µM

Q: What does the source list for `COc1ncc(N2CCc3ncnc(O[C@H]4CCN(C(=O)c5cnccn5)C4)c3C2)cc1C(F)(F)F` [Example 52, {(S)-3-[6-(6-Methoxy-5-trifluoromethyl-pyridin-3-yl)-5,6,7,8-tetrahydro-pyrido[4,3-d]pyrimidin-4-yloxy]-pyrrolidin-1-yl}-pyrazin-2-yl-methanone]?
A: IC50 (PI3K alpha): 1.02 µM; IC50 (PI3K delta): 0.046 µM

Q: `COc1ncc(N2CCc3ncnc(O[C@H]4CCN(C(=O)c5cn(C)cn5)C4)c3C2)cc1C(F)(F)F` [Example 53, {(S)-3-[6-(6-Methoxy-5-trifluoromethyl-pyridin-3-yl)-5,6,7,8-tetrahydro-pyrido[4,3-d]pyrimidin-4-yloxy]-pyrrolidin-1-yl}-(1-methyl-1H-imidazol-4-yl)-methanone] was tested. Which IC50 (PI3K alpha) did it give?
A: 0.504 µM

Q: And the IC50 (PI3K delta)?
A: 0.006 µM

Q: For `COc1ncc(N2CCc3ncnc(O[C@H]4CCN(C(=O)c5cnn(C)c5)C4)c3C2)cc1C(F)(F)F` [Example 54, {(S)-3-[6-(6-Methoxy-5-trifluoromethyl-pyridin-3-yl)-5,6,7,8-tetrahydro-pyrido[4,3-d]pyrimidin-4-yloxy]-pyrrolidin-1-yl}-(1-methyl-1H-pyrazol-4-yl)-methanone], which IC50 (PI3K alpha) is on record?
A: 0.384 µM

Q: And the IC50 (PI3K delta)?
A: 0.005 µM

Q: For `COc1ncc(N2CCc3ncnc(O[C@H]4CCN(C(=O)c5cscn5)C4)c3C2)cc1C(F)(F)F` [Example 55, {(S)-3-[6-(6-Methoxy-5-trifluoromethyl-pyridin-3-yl)-5,6,7,8-tetrahydro-pyrido[4,3-d]pyrimidin-4-yloxy]-pyrrolidin-1-yl}-thiazol-4-yl-methanone], which IC50 (PI3K alpha) is on record?
A: 0.661 µM

Q: And the IC50 (PI3K delta)?
A: 0.005 µM

Q: `COc1ncc(N2CCc3ncnc(O[C@H]4CCN(C(=O)C5CCOCC5)C4)c3C2)cc1Cl` [Example 56, {(S)-3-[6-(5-Chloro-6-methoxy-pyridin-3-yl)-5,6,7,8-tetrahydro-pyrido[4,3-d]pyrimidin-4-yloxy]-pyrrolidin-1-yl}-(tetrahydro-pyran-4-yl)-methanone] was tested. Which IC50 (PI3K alpha) did it give?
A: 0.86 µM

Q: What about the IC50 (PI3K delta) of the same molecule?
A: 0.013 µM

Q: Which results are given for `Nc1ncc(N2CCc3ncnc(O[C@H]4CCN(C(=O)C5CCOCC5)C4)c3C2)cc1C(F)(F)F` [Example 57, {(S)-3-[6-(6-Amino-5-trifluoromethyl-pyridin-3-yl)-5,6,7,8-tetrahydro-pyrido[4,3-d]pyrimidin-4-yloxy]-pyrrolidin-1-yl}-(tetrahydro-pyran-4-yl)-methanone]?
A: IC50 (PI3K alpha): 0.59 µM; IC50 (PI3K delta): 0.025 µM

Q: How did the IC50 (PI3K alpha) turn out when `COc1ncc(N2CCc3ncnc(OC4CN(C(=O)C5CCOCC5)C4)c3C2)cc1C(F)(F)F` [Example 58, {3-[6-(6-Methoxy-5-trifluoromethyl-pyridin-3-yl)-5,6,7,8-tetrahydro-pyrido[4,3-d]pyrimidin-4-yloxy]-azetidin-1-yl}-(tetrahydro-pyran-4-yl)-methanone] was run?
A: 3.06 µM

Q: What about the IC50 (PI3K delta) of the same molecule?
A: 0.03 µM
